According to paper PMC10548421, “Anticancer Potential of Diruthenium Complexes with Bridging Hydrocarbyl Ligands from Bioactive Alkynols” (Inorganic Chemistry, 2023):
Read-outs that look alike come from different tables or passages of the source.

Experiments:
[1] = Octanol/water partition coefficient, shake-flask with UV–vis; assay type: physicochemical; details: 21 °C
Description: Partition coefficients (Pow), defined by the formula Pow = corg/caq, wherein corg and caq denote the molar concentrations of the specific compound in octanol and aqueous phases, respectively, were obtained using the shake-flask method with UV–vis measurements, following a previously described procedure (Table 3).[98] All the operations were carried out at 21 ± 1 °C. The wavelength corresponding to the maximum absorption of each compound within the range 350–430 nm was employed for quantifying using UV–vis techniques.

[2] = Stability in DMEM/CH3OH solution (UV–vis); assay type: physicochemical; details: ca. 5:1 v/v
Description: […] The percentage of remaining complex in the solution was calculated by considering the change in absorbance at the characteristic wavelength. The identical procedure was employed to evaluate stability in MeOH and DMEM (about 1:5 v/v) solutions. DMEM stands for the cell culture medium (containing 1000 mg/L glucose and L-glutamine, excluding sodium bicarbonate and phenol red; reference D2902-Merck).

[3] = tested on: A2780 human ovarian carcinoma cell line; test: MTT in vitro cytotoxicity, A2780; assay type: cell-based
Description: (§1) The cytotoxicity assessment was conducted on various human cancer cell lines, including A2780 ovarian carcinoma, A2780R cisplatin-resistant ovarian carcinoma, MCF-7 breast, HOS osteosarcoma, A549 epithelial lung, PANC-1 pancreatic, Caco-2 colorectal, PC-3 prostate adenocarcinoma, and HeLa cervical cell lines. Additionally, the assessment extended to a normal human fetal fibroblast cell line (MRC-5). Cells were obtained from ATCC collection and cultivated according to the producer’s instructions. Stock solutions of the compounds were prepared in DMF immediately before application, and diluted with H2O to achieve the final concentration of 0.1% v/v DMF.[99] The culture media were enriched with 10% fetal calf serum. Subsequently, the cells were exposed to the tested compounds, vehicle (0.1% v/v DMF) and Triton X-100 (1% v/v), during incubation. The conventional MTT assay was carried out following different incubation periods (Tables 5-6). The absorbance was measured at 570 nm by using a spectrophotometer (Infinite M200, Schoeller Instruments, Prague, Czech Republic). The obtained data are presented as the percentage of cell viability with 100% representing negative control treatment (0.1% v/v DMF) and 0% representing the positive control (Triton X-100). The half-maximal inhibitory concentrations (IC50) were determined from dose–response curves using GraphPad Prism 6 software (GraphPad Software, San Diego, USA).

[4] = tested on: MCF-7 breast adenocarcinoma cell line; test: MTT in vitro cytotoxicity, MCF-7; assay type: cell-based, human; details: incubation 24 h, mean ± SD
Description: as §1

[5] = tested on: PANC-1 human pancreatic carcinoma cell line; test: MTT in vitro cytotoxicity, PANC-1; assay type: cell-based; details: incubation 24 h, mean ± SD
Description: as §1

[6] = tested on: Caco-2 human colorectal adenocarcinoma cell line; test: MTT in vitro cytotoxicity, Caco-2; assay type: cell-based; details: incubation 24 h, mean ± SD
Description: as §1, with “Additionally,” for “The cytotoxicity assessment was conducted on various human cancer cell lines, including A2780 ovarian carcinoma, A2780R cisplatin-resistant ovarian carcinoma, MCF-7 breast, HOS osteosarcoma, A549 epithelial lung, PANC-1 pancreatic, Caco-2 colorectal, PC-3 prostate adenocarcinoma, and HeLa cervical cell lines. Additionally,”

[7] = tested on: HeLa human cervical carcinoma cell line; test: MTT in vitro cytotoxicity, HeLa; assay type: cell-based; details: incubation 24 h, mean ± SD
Description: as §1

[8] = tested on: MRC-5 normal human lung fibroblast cell line; test: MTT in vitro cytotoxicity, MRC-5 (selectivity); assay type: cell-based; details: for IC50: normal cells, MTT, incubation 24 h, mean ± SD
Description: as §1

[9] = target: bovine serum albumin (BSA) (Bos taurus, UniProt P02769); test: Interaction with BSA (MALDI-TOF MS); assay type: binding; details: BSA 30 μM, complex 1 mM, 48 h at 37 °C
Chain of bovine serum albumin (BSA) (P02769 25-607): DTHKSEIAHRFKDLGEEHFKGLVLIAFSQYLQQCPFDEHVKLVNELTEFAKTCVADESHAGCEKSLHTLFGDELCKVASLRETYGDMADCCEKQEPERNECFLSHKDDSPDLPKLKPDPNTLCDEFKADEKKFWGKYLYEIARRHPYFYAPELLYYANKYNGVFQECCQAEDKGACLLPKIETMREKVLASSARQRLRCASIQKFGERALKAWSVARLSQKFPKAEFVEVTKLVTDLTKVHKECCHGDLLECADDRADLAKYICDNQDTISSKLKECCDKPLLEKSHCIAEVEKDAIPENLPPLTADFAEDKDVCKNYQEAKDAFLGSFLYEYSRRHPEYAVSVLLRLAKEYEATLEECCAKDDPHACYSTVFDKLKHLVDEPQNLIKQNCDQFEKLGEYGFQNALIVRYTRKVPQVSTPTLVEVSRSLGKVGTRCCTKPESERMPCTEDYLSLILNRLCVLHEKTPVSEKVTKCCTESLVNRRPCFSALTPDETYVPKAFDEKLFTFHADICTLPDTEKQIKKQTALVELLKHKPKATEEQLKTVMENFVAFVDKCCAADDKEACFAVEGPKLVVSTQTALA
Description: Bovine serum albumin (BSA, 30 μM in 50 mM NH4HCO3) was incubated with the selected complexes (3a or 3b, 1 mM) at 37 °C for 48 h. Each complex was preliminarily dissolved in 50 μL of methanol. Following the incubation, an aliquot of the protein was adsorbed by repeated aspiration and release (20 times, 10-μL volume) into a ZipTip-C4 pipet tip (Merck, Darmstadt, Germany) that had been pre-equilibrated in 0.1% trifluoroacetic acid (TFA), washed by the equilibrating solution, and eluted into 10 μL of 70% acetonitrile containing 0.1% TFA. The eluate was subsequently subjected to evaporation using a vacuum centrifuge, and the residue was dissolved in 3 μL of 0.1% TFA. A 1 μL aliquot of this solution was deposited on an MSP Big Anchor 96 target plate (Bruker Daltonik, Bremen, Germany), onto which 1 μL of the matrix solution (sinapinic acid, 12 mg/mL in 0.1% TFA and 50% acetonitrile) was immediately superimposed. The sample was then allowed to dry. Mass spectra were acquired using a Microflex LRF20 MALDI-TOF mass spectrometer operated in a linear positive ion mode and controlled using flexControl 3.4 software from Bruker Daltonik). Protein Standard II, from Bruker Daltonik, was used for external calibration. All spectra were subjected to processing by using flexAnalysis 3.4 software from Bruker Daltonik.

[10] = MTT, incubation 24 h, mean ± SD (Table 5), read-out: IC50 A2780
[11] = time-course experiment (Table 6), 24 h, mean ± SD, read-out: IC50 A2780, incubation time 24 h
[12] = time-course experiment (Table 6), 48 h, mean ± SD, read-out: IC50 A2780, incubation time 48 h
[13] = time-course experiment (Table 6), 72 h, mean ± SD, read-out: IC50 A2780, incubation time 72 h

Compound	Log Pow [1]	residual complex % in DMEM/CH3OH ([2]; 2 h) [%]	residual complex % in DMEM/CH3OH ([2]; 18 h) [%]	IC50 [3, 10] [µM]	IC50 [3, 11] [µM]	IC50 [3, 12] [µM]	IC50 [3, 13] [µM]	IC50 [4] [µM]	IC50 [5] [µM]	IC50 [6] [µM]	IC50 [7] [µM]	IC50 [8] [µM]	mass variation of adduct with respect to BSA [9] [Da]	IC50 on healthy MRC-5 cell line compared to the average IC50 values of the cancer cell lines ([8]; 24 h, selectivity)
F[B-](F)(F)F.O=[C]=[Ru+]1([CH]2C=CC=C2)[C](=O)[Ru]1(=[C]=O)([CH]=C=C1CCCC1)[CH]1C=CC=C1 (stereo not drawn) [3a, [Ru2Cp2(CO)3{μ–η^1:η^2-CH=C=(cyclopentylidene)}]BF4]	–0.54 ± 0.02	94	12	4.2 ± 0.9	3.8 ± 0.7	3.2 ± 0.2	3.1 ± 0.2	16.2 ± 1.7	28.4 ± 3.9	> 50	17.5 ± 2.9	38.3 ± 3.9	3434	–
CC12CCC3c4ccc(O)cc4CCC3C1CCC2=C=[CH][Ru]1(=[C]=O)([CH]2C=CC=C2)[C](=O)[Ru+]1(=[C]=O)[CH]1C=CC=C1.F[B-](F)(F)F (mixture of isomers) [3b, [Ru2Cp2(CO)3{μ–η^1:η^2-CH=C=(estradiolylidene)}]BF4]	1.24 ± 0.16	88	42	3.4 ± 0.6	4 ± 0.7	3 ± 0.3	2.8 ± 0.2	11.6 ± 1.5	19.8 ± 2.3	36 ± 2.7	12.5 ± 1.1	25.9 ± 2.9	483	approximately 2 fold
